Laboratory results reported in patent publication US11266739B2, “Methods and compositions for adoptive cell therapy” (Juno Therapeutics, Inc., priority 2014, dated 2022).
Substitutions are numbered along the chain they refer to. Names may count otherwise.

B1: R31H: variant CAR junction region, replacement numbered per SEQ ID NO:5 (protein)
chain: FWVLVVVGGVLACYSLLVTVAFIIFWVKRGHKKLLYIFKQPFMRPVQTTQEEDGCSCRFPEEEEGGCEL
modifications: CD28-4-1BB
B2: L34A: variant CAR junction region, replacement numbered per SEQ ID NO:5 (protein)
chain: B1 chain with H31R, L34A
modifications: CD28-4-1BB
B3: L34S: variant CAR junction region, replacement numbered per SEQ ID NO:5 (protein)
chain: B1 chain with H31R, L34S
modifications: CD28-4-1BB

Assays:
[1] = target: HLA-B*08:01 (Homo sapiens, UniProt P01889, A93T/A95T/D138N/E176V/E187T/K202T/Q94N/R180D/S35A/V36M/Y33D/Y91F); test: REVEAL Epitope Discovery System in vitro MHC-peptide binding assay, HLA-B*08:01; conditions: binding normalized to positive control peptide set at 100%, score >50 considered good or high affinity binding
Protocol: (§1) Actual binding affinities for certain HLA class I alleles (A*02:01, A*03:01, A*11:01, and B*08:01) were assessed in vitro for exemplary overlapping 9 amino acid peptide sequences within a portion of the 26 amino acid junction region spanning the CD28 and 4-1BB junction. Specifically, assessment was of a series of overlapping 9-mer peptides derived from the sequence […] (set forth in SEQ ID NO: 7), which contains a portion of the CD28 transmembrane domain and 4-1BB costimulatory domain spanning the junction between the domains (bond joining the two amino acids noted in underline). In addition, a series of overlapping 9-mer peptides of each of a number of different variants of this portion also were assessed, each variant containing a mutation or mutations in this region as described in Example 2.
(§2) The various 9-mer overlapping peptides were synthesized and their purity tested by MALDI-TOF Mass Spectrometry. The synthetic peptides were then incubated with recombinant MHC molecules to assess binding properties using the REVEAL Epitope Discovery System, which is a high-throughput binding assay that measures the degree to which each peptide is able to stabilize a ternary MHC-peptide complex (ProImmune, Oxford, United Kingdom). Each peptide was separately tested for this ability with respect to each of the HLA class I alleles, normalized to the degree observed for a positive control (known T cell epitope for the relevant allele). The results are reported as a score, in which the binding was normalized to the positive control peptide set at 100%.

[2] = target: HLA-A*11:01 (Homo sapiens, UniProt P04439, A114D/D185E/E176A/F33Y/L180Q/S129P/T187R); test: REVEAL Epitope Discovery System in vitro MHC-peptide binding assay, HLA-A*11:01; conditions: binding normalized to positive control peptide set at 100%, score >50 considered good or high affinity binding
Protocol: as §1, §2

[3] = tested on: HLA class I alleles (A*02:01, A*03:01, A*11:01, and B*08:01); test: Comparison of in silico and in vitro binding of variant junction peptides to HLA class I alleles (summary); design: species or system human; conditions: without higher binding affinity to another HLA allele or for another peptide
Protocol: as §1, §2
The results were compared to predicted binding (IC50) values obtained for binding of the same peptide:MHC complex, using the in silico prediction methods as described in Example 2. Since the maximum IC50 value predicted was about 50,000, the IC50 values were log transformed, subtracted from LOG(50000) and divided by LOG(50000) to obtain a normalized in silico score ((Log(50000)−log IC50)/Log(50000)). […]

Molecule	In Vitro Score (B*08:01) [1]	In Vitro Score (A*11:01) [2]	predicted or actual binding affinity or score for at least one HLA allele and/or at least one peptide [3]
WVQRGRKKL [junction 9-mer, peptide 7, mutation K29Q]	45.10	12.80	
IIFWVKRGR	0.00	54.50	
IFWVSRGRK [junction 9-mer, peptide 5, mutation K29S]	0.00	39.20	
IFWVKRGLK [junction 9-mer, peptide 5, mutation R32L]	58.30	61.10	
IFWVKRGAK [junction 9-mer, peptide 5, mutation R32A]	2.20	69.70	
IIFWVSRGR [junction 9-mer, peptide 4, mutation K29S]	0.00	68.90	
WVQRGNKKL [junction 9-mer, peptide 7, mutation K29Q/R32N]	32.00	10.70	
IFWVHRGRK [junction 9-mer, peptide 5, mutation K29H]	0.10	36.60	
VAFIIFWVR [junction 9-mer, peptide 1, mutation K29R]	0.10	34.60	
WVARGRKKL [junction 9-mer, peptide 7, mutation K29A]	32.40	13.80	
WVKRGAKKL [junction 9-mer, peptide 7, mutation R32A]	34.10	4.60	
IIFWVKRGA [junction 9-mer, peptide 4, mutation R32A]	0.90	22.60	
AFIIFWVHR [junction 9-mer, peptide 2, mutation K29H]	0.30	34.90	
WVKRGSKKL [junction 9-mer, peptide 7, mutation R32S]	56.10	11.80	
IIFWVKRGL [junction 9-mer, peptide 4, mutation R32L]	1.70	32.40	
IFWVARGRK [junction 9-mer, peptide 5, mutation K29A]	0.00	34.90	
AFIIFWVAR [junction 9-mer, peptide 2, mutation K29A]	0.20	51.80	
IFWVQRGNK [junction 9-mer, peptide 5, mutation K29Q/R32N]	0.10	67.50	
FIIFWVHRG [junction 9-mer, peptide 3, mutation K29H]	0.20	0.90	
WVKRGNKKL [junction 9-mer, peptide 7, mutation R32N]	65.90	4.10	

Molecule	In Vitro Score (B*08:01) [1]	In Vitro Score (A*11:01) [2]	predicted or actual binding affinity or score for at least one HLA allele and/or at least one peptide [3]
IIFWVARGR [junction 9-mer, peptide 4, mutation K29A]	0.30	70.60	
IFWVQRGAK [junction 9-mer, peptide 5, mutation K29Q/R32A]	0.20	61.30	
WVKRGHKKL [junction 9-mer, peptide 7, mutation R32H]	47.60	2.80	
IIFWVKRGN [junction 9-mer, peptide 4, mutation R32N]	0.90	42.10	
IFWVQRGRK [junction 9-mer, peptide 5, mutation K29Q]	0.00	128.50	
VAFIIFWVS [junction 9-mer, peptide 1, mutation K29S]	0.10	25.10	
IFWVKRGNK [junction 9-mer, peptide 5, mutation R32N]	0.10	45.90	
AFIIFWVSR [junction 9-mer, peptide 2, mutation K29S]	0.30	54.00	
IIFWVQRGR [junction 9-mer, peptide 4, mutation K29Q]	0.10	72.80	
IIFWVQRGA [junction 9-mer, peptide 4, mutation K29Q/R32A]	0.20	56.50	
IFWVKRGSK [junction 9-mer, peptide 5, mutation R32S]	1.20	47.90	
IIFWVHRGR [junction 9-mer, peptide 4, mutation K29H]	0.20	77.50	
IIFWVKRGS [junction 9-mer, peptide 4, mutation R32S]	0.40	100.00	
IIFWVLRGR [junction 9-mer, peptide 4, mutation K29L]	0.40	35.20	
IFWVKRGHK [junction 9-mer, peptide 5, mutation R32H]	3.20	30.90	
FWVARGRKK [junction 9-mer, peptide 6, mutation K29A]		8.90	
VAFIIFWVK	0.30	109.20	
B1			reduced
B2			reduced
B3			reduced
